We go through two compounds from US5214037A, “Thioalkylthio cephalosporin derivatives” (Shionogi & Co., Ltd., priority 1990, dated 1993).

Converted amounts (≈) assume the structure as drawn.

Holding throughout (experiment): Antibacterial activity in vitro, minimal inhibitory concentration (two-fold agar dilution)
Holding throughout (type): cell-based

The subject of assay [1] is Enterobacter cloacae SR233. The method, then: (§1) Antibacterial activity in vitro : A solution of the test compound in 0.01N-aqueous sodium hydrogen carbonate was applied to an agar plate by two-fold dilution method and the minimal inhibitory concentrations against Gram-negative and Gram-positive bacteria were measured according to the standard method of the Japan Society of Chemotherapy.

In assay [2] the test system is Escherichia coli 7437. The note with it: Escherichia coli 7437, agar dilution. The method, then:
as §1
For orientation: Agar dilution tests growth on a series of plates holding different concentrations.

The test system of assay [3] is Klebsiella pneumoniae SR1. The note with it: unit cut off in print. The method, then:
as §1

Assay [4] concerns Haemophilus influenzae SR3508. The method, then: as §1

Turning to `Nc1nc(/C(=N/O)C(=O)N[C@@H]2C(=O)N3C(C(=O)O)=C(SCSc4nc[nH]n4)CS[C@H]23)cs1` [Example 7-20, 7μ-[(Z)-2-(2-aminothiazol-4-yl)-2-hydroxyiminoacetamido]-3-(1,2,4-triazol-3-yl)thiomethylthio-3-cephem-4-carboxylic acid], the figures for the MIC in assay [1], in assay [2] and in assay [3] were 0.8 µg/mL (≈ 1.55 µM), 0.02 µg/mL (≈ 0.0389 µM) and 0.05 µg/mL (≈ 0.0972 µM), respectively.

In the case of `Cn1cc(SCSC2=C(C(=O)O)N3C(=O)[C@@H](NC(=O)/C(=N\O)c4csc(N)n4)[C@H]3SC2)nn1` [Example 7-17, 7μ-[(Z)-2-(2-aminothiazol-4-yl) -2-hydroxyiminoacetamido]-3-(1-methyl-1,2,3-triazol-4-yl)thiomethylthio-3-cephem-4-carboxylic acid], the values for the MIC in assay [1], in assay [4] and in assay [2] were 0.8 µg/mL (≈ 1.51 µM), 0.1 µg/mL (≈ 0.189 µM) and 0.02 µg/mL (≈ 0.0378 µM), respectively.
